Assay [1] has as its system Puccinia recondita tritici. The experiment in a line: Fungicidal activity vs. leaf rust on wheat plants (PUCCRT). It is filed as in vivo, Puccinia recondita tritici=Puccinia triticina. The settings on record: 50 ppm spray on wheat (variety Yuma); inoculated the following day; severity evaluated 7-9 days later. From the text:
D. Evaluation of Fungicidal Activity Vs. Leaf Rust (Causal Agent Puccinia recondita tritici=Puccinia triticina; Bayer Code PUCCRT).
Each pot contained 3-8 seedlings. These plants were sprayed until wet with the formulated test compounds. The compounds were formulated at 50 ppm in 10 vol. % acetone plus 90 vol. % Triton X water (deionized water 99.99 wt %+0.01 wt % Triton X100), giving a “formulated test compound.” Formulated test compounds were applied to plants using a turn table sprayer fitted with two opposing air atomization nozzles which delivered approximately 1500 L/ha of spray volume. On the following day, the leaves were inoculated with an aqueous spore suspension of Puccinia recondita tritici and the plants were kept in high humidity overnight to permit spores to germinate and infect the leaf. The plants were then transferred to a greenhouse until disease developed on untreated control plants. Disease severity was evaluated 7-9 days later, depending on the speed of disease development. Compounds 4(−), 9(+), 11, 13, 18, 21, 25, 26, 27, 28, 32, 34, 37, 38, 39, 42, 43, 48, 51, 52, 56, 57, and 59 were selected for testing against PUCCRT at 50 ppm. Compounds that provided >80% disease control at 50 ppm included 4(−), 9(+), 11, 13, 18, 21, 25, 26, 27, 28, 32, 34, 37, 38, 39, 42, 43, 48, 52, 56, and 57.

For assay [2], the system named is Septoria tritici (ATCC 26517). The experiment in a line: Minimum Inhibitory Concentration (MIC) (Septoria tritici), CLSI-based microdilution. It counts as cell-based. As to conditions: Zymoseptoria tritici, ATCC26517, 168 h; S. tritici ATCC 26517; 50% growth reduction; 7 days at 22 °C; read-out: Septoria Rating (MIC). On the procedure:
C. Minimum Inhibitory Concentration (MIC) (Septoria tritici) Compounds of the present disclosure were assessed for their ability to inhibit the growth of a common strain of the fungal plant pathogen Septoria tritici (ATCC 26517) using a procedure based on a Clinical and Laboratory Standards Institute (CLSI) microdilution assay protocol for filamentous fungi. Stock solutions of the test compounds and standards were prepared in DMSO at 6400 μg/mL. Each stock solution was used to prepare a 2-fold dilution series ranging from 16 to 0.016 μg/mL (total of 11 compound concentrations) in RPMI-1640 (Roswell Park Memorial Institute) medium containing 3-(N-morpholino)propanesulfonic acid (MOPS) buffer and 2% DMSO. A 100 μL aliquot of the dilutions was added to columns 1 (16 μg/mL compound) through 11 (0.016 μg/mL compound) of a 96-well microtiter plate. This format was replicated in a second row of the microtiter plate. Thus, each microtiter plate could include 11 concentrations of four test or control compounds replicated twice. A 100 μL aliquot of RPMI-1640/MOPS/2% DMSO medium was added to column 12 (no compound control) of the microtiter plate. A fresh culture of S. tritici was used to prepare a solution of approximately 5×10^4 colony-forming units per milliliter (cfu/mL) in RPMI/MOPS medium without DMSO. A 100 μL aliquot of this solution was added to all 96 wells in the microtiter plate. […] The assay plates were incubated at 22° C. for seven days in the dark without shaking. […] In each case of Table 3 the rating scale is as follows: […]
Background: In broth dilution the organism is exposed to a series of concentrations in liquid medium.

Values after ≈ are worked out from the molar mass of the structure shown.

In the case of `OC(Cn1cnnn1)(c1ccc(F)cc1F)C(F)(F)c1ccc2cc(C(F)(F)F)ccc2n1` (stereo not drawn) [Compound 18, 2-(2,4-Difluorophenyl)-1,1-difluoro-3-(1H-tetrazol-1-yl)-1-(6-(trifluoromethyl)quinolin-2-yl)propan-2-ol], the disease control in assay [1] was greater than 80%. Moreover, the MIC (commonly the lowest concentration found to suppress growth) in assay [2] is no more than 0.5 mg/L.
In the case of `OC(Cn1cnnn1)(c1ccc(F)cc1F)C(F)(F)c1ccc(-c2ccc(OC(F)(F)F)cc2)nn1` (stereo not drawn) [Compound 57, 2-(2,4-Difluorophenyl)-1,1-difluoro-3-(1H-tetrazol-1-yl)-1-(6-(4-(trifluoromethoxy)phenyl)pyridazin-3-yl)propan-2-ol], the disease control in assay [1] is given as greater than 80%. The MIC in assay [2] is no more than 0.5 mg/L.
`OC(Cn1cnnn1)(c1ccc(F)cc1F)C(F)(F)c1ccc2cc(Cl)ccc2n1` (stereo not drawn) [4(−), 1-(6-Chloroquinolin-2-yl)-2-(2,4-difluorophenyl)-1,1-difluoro-3-(1H-tetrazol-1-yl)propan-2-ol] yielded a disease control in assay [1] greater than 80%. In assay [2], the MIC was no more than 0.5 mg/L.
In the same order, the values of `OC(Cn1cnnn1)(c1ccc(F)cc1F)C(F)(F)c1nc2ccc(Br)cc2s1` (stereo not drawn) [Compound 27, 1-(6-Bromobenzo[d]thiazol-2-yl)-2-(2,4-difluorophenyl)-1,1-difluoro-3-(1H-tetrazol-1-yl)propan-2-ol] are greater than 80% and no more than 0.5 mg/L.
In assay [1], `OC(Cn1cnnn1)(c1ccc(F)cc1F)C(F)(F)c1ccc2cc(OC(F)(F)F)ccc2n1` (stereo not drawn) [Compound 21, 2-(2,4-Difluorophenyl)-1,1-difluoro-3-(1H-tetrazol-1-yl)-1-(6-(trifluoromethoxy)quinolin-2-yl)propan-2-ol] yielded a disease control greater than 80%. Also, in assay [2], the MIC was no more than 0.5 mg/L.
The corresponding values for `OC(Cn1cnnn1)(c1ccc(F)cc1F)C(F)(F)c1cnc2cc(Br)ccc2n1` (stereo not drawn) [Compound 38, 1-(6-Bromoquinoxalin-2-yl)-2-(2,4-difluorophenyl)-1,1-difluoro-3-(1H-tetrazol-1-yl)propan-2-ol] are greater than 80% and no more than 0.5 mg/L.
`OC(Cn1cnnn1)(c1ccc(F)cc1F)C(F)(F)c1ccc(-c2ccc(C(F)(F)F)cc2)nn1` (stereo not drawn) [Compound 56, 2-(2,4-Difluorophenyl)-1,1-difluoro-3-(1H-tetrazol-1-yl)-1-(6-(4-(trifluoromethyl)phenyl)pyridazin-3-yl)propan-2-ol] registered a disease control in assay [1] greater than 80%. The MIC in assay [2] lay in the range of 0.5 to 1.5 mg/L (≈ 1 to 3.01 µM).
The corresponding values for `OC(Cn1cnnn1)(c1ccc(F)cc1)C(F)(F)c1ccc2cc(Cl)ccc2n1` (stereo not drawn) [Compound 32, 1-(6-Chloroquinolin-2-yl)-1,1-difluoro-2-(4-fluorophenyl)-3-(1H-tetrazol-1-yl)propan-2-ol] are greater than 80% and no more than 0.5 mg/L.
As for `OC(Cn1cnnn1)(c1ccc(F)cc1F)C(F)(F)c1cnc(-c2ccc(Br)cc2)cn1` (stereo not drawn) [Compound 43, 1-(5-(4-Bromophenyl)pyrazin-2-yl)-2-(2,4-difluorophenyl)-1,1-difluoro-3-(1H-tetrazol-1-yl)propan-2-ol], in assay [1], the disease control is on record as greater than 80%. The minimum inhibitory concentration (MIC) in assay [2] was no more than 0.5 mg/L.
`OC(Cn1cnnn1)(c1ccc(F)cc1F)C(F)(F)c1ccc2cc(Br)ccc2n1` (stereo not drawn) [9(+), 1-(6-Bromoquinolin-2-yl)-2-(2,4-difluorophenyl)-1,1-difluoro-3-(1H-tetrazol-1-yl)propan-2-ol] displayed a disease control in assay [1] greater than 80%. The MIC in assay [2] is no more than 0.5 mg/L.
In the same order, the values of `OC(Cn1cnnn1)(c1ccc(F)cc1F)C(F)(F)c1cc2ccc(Cl)cc2cn1` (stereo not drawn) [Compound 37, 1-(7-Chloroisoquinolin-3-yl)-2-(2,4-difluorophenyl)-1,1-difluoro-3-(1H-tetrazol-1-yl)propan-2-ol] are greater than 80% and no more than 0.5 mg/L.
The compound `OC(Cn1cnnn1)(c1ccc(F)cc1F)C(F)(F)c1ccc(Br)s1` (stereo not drawn) [Compound 13, 1-(5-Bromothiophen-2-yl)-2-(2,4-difluorophenyl)-1,1-difluoro-3-(1H-tetrazol-1-yl)propan-2-ol] had a disease control in assay [1] greater than 80%. In addition, the MIC in assay [2] is no more than 0.5 mg/L.
Take `OC(Cn1cnnn1)(c1ccc(Cl)cc1F)C(F)(F)c1cnc2cc(Cl)ccc2n1` (stereo not drawn) [Compound 34, 2-(4-Chloro-2-fluorophenyl)-1-(6-chloroquinoxalin-2-yl)-1,1-difluoro-3-(1H-tetrazol-1-yl)propan-2-ol]: the disease control in assay [1] is given as greater than 80%. Further, the MIC in assay [2] was no more than 0.5 mg/L.
In assay [1], `OC(Cn1cnnn1)(c1ccc(F)cc1F)C(F)(F)c1nc2ccc(Cl)cc2s1` (stereo not drawn) [Compound 11, 1-(6-Chlorobenzo[d]thiazol-2-yl)-2-(2,4-difluorophenyl)-1,1-difluoro-3-(1H-tetrazol-1-yl)propan-2-ol] had a disease control greater than 80%. For the same compound, in assay [2], the minimal inhibitory concentration (MIC) is no more than 0.5 mg/L.
In the case of `OC(Cn1cnnn1)(c1ccc(F)cc1F)C(F)(F)c1cnc(CCc2ccc(F)cc2)cn1` (stereo not drawn) [Compound 52, 2-(2,4-Difluorophenyl)-1,1-difluoro-1-(5-(4-fluorophenethyl)pyrazin-2-yl)-3-(1H-tetrazol-1-yl)propan-2-ol], the disease control in assay [1] is greater than 80%. Further, in assay [2], the MIC was no more than 0.5 mg/L.
As to `OC(Cn1cnnn1)(c1ccc(F)cc1F)C(F)(F)c1ccc2cc(C(F)F)ccc2n1` (stereo not drawn) [Compound 25, 1-(6-(Difluoromethyl)quinolin-2-yl)-2-(2,4-difluorophenyl)-1,1-difluoro-3-(1H-tetrazol-1-yl)propan-2-ol], in assay [1], the disease control is recorded as greater than 80%. Moreover, the minimum inhibitory concentration (MIC) in assay [2] was no more than 0.5 mg/L.
The compound `OC(Cn1cnnn1)(c1ccc(F)cc1F)C(F)(F)c1cnc(-c2ccc(OC(F)(F)F)cc2)cn1` (stereo not drawn) [Compound 42, 2-(2,4-Difluorophenyl)-1,1-difluoro-3-(1H-tetrazol-1-yl)-1-(5-(4-(trifluoromethoxy)phenyl)pyrazin-2-yl)propan-2-ol] gave a disease control in assay [1] greater than 80%. Also, the MIC in assay [2] is no more than 0.5 mg/L.
`Cc1ccc2nc(C(F)(F)C(O)(Cn3cnnn3)c3ccc(F)cc3F)ccc2c1` (stereo not drawn) [Compound 26, 2-(2,4-Difluorophenyl)-1,1-difluoro-1-(6-methylquinolin-2-yl)-3-(1H-tetrazol-1-yl)propan-2-ol] came in with a disease control in assay [1] greater than 80%. In addition, in assay [2], the MIC is no more than 0.5 mg/L.
`OC(Cn1cnnn1)(c1ccc(F)cc1F)C(F)(F)c1cnc(-c2ccc(OC(F)F)cc2)cn1` (stereo not drawn) [Compound 39, 1-(5-(4-(Difluoromethoxy)phenyl)pyrazin-2-yl)-2-(2,4-difluorophenyl)-1,1-difluoro-3-(1H-tetrazol-1-yl)propan-2-ol] yielded a disease control in assay [1] greater than 80%. Also, the MIC in assay [2] is no more than 0.5 mg/L.
In the same order, the values of `OC(Cn1ncnn1)(c1cc(F)ccc1F)C(F)(F)c1ccc2cc(Cl)ccc2n1` (stereo not drawn) [Compound 28, 1-(6-Chloroquinolin-2-yl)-2-(2,5-difluorophenyl)-1,1-difluoro-3-(2H-tetrazol-2-yl)propan-2-ol] are greater than 80% and no more than 0.5 mg/L.
Consider `OC(Cn1ncnn1)(c1ccc(F)cc1F)C(F)(F)c1ccc2cc(Cl)ccc2n1` (stereo not drawn) [Compound 16, 1-(6-Chloroquinolin-2-yl)-2-(2,4-difluorophenyl)-1,1-difluoro-3-(2H-tetrazol-2-yl)propan-2-ol], for which the minimal inhibitory concentration (MIC) in assay [2] was 0.5 to 1.5 mg/L (≈ 1.14 to 3.43 µM).
In assay [1], `COc1ccc(-c2cnc(C(F)(F)C(O)(Cn3cnnn3)c3ccc(F)cc3F)cn2)cc1` (stereo not drawn) [Compound 48, 2-(2,4-Difluorophenyl)-1,1-difluoro-1-(5-(4-methoxyphenyl)pyrazin-2-yl)-3-(1H-tetrazol-1-yl)propan-2-ol] yielded a disease control greater than 80%. Also, in assay [2], the minimum inhibitory concentration (MIC) is no more than 0.5 mg/L.
As for `COc1ccc(C(O)(Cn2cnnn2)C(F)(F)c2ccc3cc(Cl)ccc3n2)cc1` (stereo not drawn) [Compound 15, 1-(6-Chloroquinolin-2-yl)-1,1-difluoro-2-(4-methoxyphenyl)-3-(1H-tetrazol-1-yl)propan-2-ol], the MIC in assay [2] was 1.5 to 4 mg/L (≈ 3.47 to 9.26 µM).
For `OC(Cn1cnnn1)(c1ccc(F)cc1)C(F)(F)c1cnc(-c2ccc(OC(F)(F)F)cc2)cn1` (stereo not drawn) [Compound 45, 1,1-Difluoro-2-(4-fluorophenyl)-3-(1H-tetrazol-1-yl)-1-(5-(4-(trifluoromethoxy)phenyl)pyrazin-2-yl)propan-2-ol], the MIC in assay [2] lay in the range of 1.5 to 4 mg/L (≈ 3.02 to 8.06 µM).

The values are drawn from patent publication US8883797B2, “Metalloenzyme inhibitor compounds” (Viamet Pharmaceuticals, Inc., priority 2011, dated 2014).
